Literature values, collected in US9079837B2, “Water-soluble fluorescent fullerene derivative, and preparation method thereof” (KOREA RESEARCH INSTITUTE OF BIOSCIENCE AND BIOTECHNOLOGY, priority 2010, dated 2015).
In brackets after ≈: the same amount, converted by molar mass. Counter-ions that a name gives are not always drawn. Like-named read-outs stand apart in the source and are kept apart here.

Experiments:
[1] = water; Sivaraman et al., J. Org. Chem. 1992
[2] = for fluorescence quantum yield: literature value (J. Am. Chem. Soc. 1993, 1994), room temperature

fluorescence quantum yield of standard ([2]; standard value)	SMILES	solubility [1] [ng/mL]	fluorescence quantum yield ([2]; listed as fullerenes)	fluorescence quantum yield ([2]; listed as general fullerene)
	c12c3c4c5c1c1c6c7c2c2c8c3c3c9c4c4c%10c5c5c1c1c6c6c%11c7c2c2c7c8c3c3c8c9c4c4c9c%10c5c5c1c1c6c6c%11c2c2c7c3c3c8c4c4c9c5c1c1c6c2c3c41 [C60 fullerene, buckminster fullerene (C60)]	1.3e-05 (≈ 1.8e-05 nM)	about 1×10^−4	1×10^−4
55×10^−2	C=C[C@H]1C[N@@]2CC[C@H]1C[C@H]2[C@H](O)c1ccnc2ccc(OC)cc12 [quinine sulfate]			
